Source: patent US9115148B2, “Spirocyclic derivatives as histone deacetylase inhibitors” (DAC S.R.L., priority 2008, dated 2015)
pIC50: −log10 of the molar value.

Columns and labels:
HCT-116 cells = test: Cell growth, CellTiter-Glo Luminescent Cell Viability Assay, HCT-116; type: cell-based; conditions: Homo sapiens, HCT116 cells, 72 h incubation, read-out: IC50 antiproliferative assay HCT116
From the text: (§1) CellTiter-Glo® Luminescent Cell Viability Assay (Promega) is a homogeneous method of determining the number of viable cells in culture based on quantitation of the present ATP, which indicates the presence of metabolically active cells. The homogeneous assay procedure involves addition of a single reagent (CellTiter-Glo® Reagent) directly to the cells, which leads to cell lysis and generation of a luminescent signal proportional to the amount of the ATP and the number of cells present in culture. The assay relies on the properties of a proprietary thermostable luciferase (Ultra-Glo® recombinant luciferase), which generates a luminescent signal.
(§2) K562, A549 and HCT-116 cells, in exponential growth, were incubated for 72 h with different concentrations of the inhibitors. After 72 h, a volume of CellTiter-Glo® Reagent equal to the volume of cell culture medium was added. The content was mixed for 2 min to induce cell lysis. The luminescence was recorded after further 10 min at RT in order to obtain a stabilized luminescent signal.
(§3) The IC50 was calculated using GraphPad Software.
(§4) IC50 results were allocated to one of 3 ranges as follows: Range A: IC50≦1.0 μM; Range B: from 1.0 to 3.0 μM; Range C: IC50≧3.0 μM.

[1] = system: HDAC (nuclear fraction of Hela cells); test: Assay of enzyme inhibition of HDAC (BIOMOL Kit); type: biochemical; conditions: substrate 200 μM, 15 min at RT
Experimental: 2.2 Assay of Enzyme Inhibition of HDAC
The in-vitro activity of HDAC inhibitors was assayed using a BIOMOL Kit, according to the instructions from the manufacturer (Biomolecular Research Laborator). 15 μl of 30× diluted nuclear fraction of Hela cells, was diluted to 50 μl with the assay buffer containing the HDAC inhibitor and the substrate (lysine with acetylated amino group on the side chain) at a concentration of 200 μM. The samples were incubated for 15 min at RT and then exposed to a developer (10 min at RT). In this last step a fluorophore was produced, whose fluorescence was measured using an excitation wavelength of 355 nm and an emission at 460 nm. The IC50 was calculated using GraphPad Software.

K562 cells = test: Cell growth, CellTiter-Glo Luminescent Cell Viability Assay, K562; type: cell-based; conditions: Homo sapiens, 72 h incubation, read-out: IC50 antiproliferative assay K562
From the text: as §1, §2, §3, §4

A549 cells = test: Cell growth, CellTiter-Glo Luminescent Cell Viability Assay, A549; type: cell-based; conditions: Homo sapiens, 72 h incubation, read-out: IC50 antiproliferative assay A549
From the text: as §1, §2, §3, §4

`O=C(/C=C/c1ccc2c(c1)C(=NOCc1ccccc1)CC1(CCN(Cc3ccccc3)CC1)O2)NO` (racemic) [Example 17, (E)-3-{1′-Benzyl-4-benzyloxyimino-spiro[chromane-2,4′-piperidine]-6-yl}-N-hydroxy-acrylamide] showed a pIC50 (HCT-116 cells) of 5.52 to 6.00, a pIC50 [1] of under 6.00 and a pIC50 (K562 cells) of 5.52 to 6.00. It also gave a pIC50 (A549 cells) of 5.52 to 6.00.

In the case of `CON=C1CC2(CCN(Cc3ccccc3)CC2)Oc2ccc(/C=C/C(=O)NO)cc21` (racemic) [Example 18, (E)-3-{1′-Benzyl-4-methyloxyimino-spiro[chromane-2,4′-piperidine]-6-yl}-N-hydroxy-acrylamide], the pIC50 (HCT-116 cells) was at least 6.00, the pIC50 [1] was 6.00 to 7.00 and the pIC50 (K562 cells) was 5.52 to 6.00. The pIC50 (A549 cells) was 5.52 to 6.00.

In the case of `O=C(/C=C/c1ccc2c(c1)C(=O)CC1(CCNCC1)O2)NO` [Example 1, (E)-3-{4-oxo-spiro[chromane-2,4′-piperidine]-6-yl}-N-hydroxy-acrylamide], the pIC50 (HCT-116 cells) was 5.52 to 6.00, the pIC50 [1] was over 7.00 and the pIC50 (K562 cells) was at most 5.52. It also gave a pIC50 (A549 cells) of 5.52 to 6.00.

In the case of `O=C(/C=C/c1ccc2c(c1)C(=O)CC1(CCN(Cc3ccccc3)CC1)O2)NO` [Example 2, (E)-3-{1′-Benzyl-4-oxo-spiro[chromane-2,4′-piperidine]-6-yl}-N-hydroxy-acrylamide], the pIC50 (HCT-116 cells) was at least 6.00, the pIC50 [1] was 6.00 to 7.00 and the pIC50 (K562 cells) was at least 6.00. The pIC50 (A549 cells) was at least 6.00.

In the case of `CC(=O)N1CCC2(CC1)CC(=O)c1cc(/C=C/C(=O)NO)ccc1O2` [Example 3, (E)-3-{1′-Acetyl-4-oxo-spiro[chromane-2,4′-piperidine]-6-yl}-N-hydroxy-acrylamide], the pIC50 (HCT-116 cells) was at most 5.52, the pIC50 [1] was 6.00 to 7.00 and the pIC50 (K562 cells) was at most 5.52. For the same compound, the pIC50 (A549 cells) was at most 5.52.

Work on `O=C(/C=C/c1ccc2c(c1)C(=O)CC1(CCN(C(=O)c3ccccc3)CC1)O2)NO` [Example 4, (E)-3-{1′-Benzoyl-4-oxo-spiro[chromane-2,4′-piperidine]-6-yl}-N-hydroxy-acrylamide] yielded a pIC50 (HCT-116 cells) of 5.52 to 6.00, a pIC50 [1] of 6.00 to 7.00 and a pIC50 (K562 cells) of 5.52 to 6.00. It also gave a pIC50 (A549 cells) of at most 5.52.

`CN1CCC2(CC1)CC(=O)c1cc(/C=C/C(=O)NO)ccc1O2` [Example 5, (E)-3-{1′-Methyl-4-oxo-spiro[chromane-2,4′-piperidine]-6-yl}-N-hydroxy-acrylamide] gave a pIC50 (HCT-116 cells) of at least 6.00, a pIC50 [1] of 6.00 to 7.00 and a pIC50 (K562 cells) of at least 6.00. The pIC50 (A549 cells) was 5.52 to 6.00.

Compound `CCOC(=O)N1CCC2(CC1)CC(=O)c1cc(/C=C/C(=O)NO)ccc1O2` [Example 6, (E)-3-{1′-Ethyloxycarbonyl-4-oxo-spiro[chromane-2,4′-piperidine]-6-yl}-N-hydroxy-acrylamide] has a pIC50 (HCT-116 cells) of 5.52 to 6.00, a pIC50 [1] of 6.00 to 7.00 and a pIC50 (K562 cells) of 5.52 to 6.00. The pIC50 (A549 cells) was at most 5.52.

For `O=C(/C=C/c1ccc2c(c1)C(=O)CC1(CCN(c3ccccc3)CC1)O2)NO` [Example 7, (E)-3-{1′-Phenyl-4-oxo-spiro[chromane-2,4′-piperidine]-6-yl}-N-hydroxy-acrylamide], the pIC50 (HCT-116 cells) was 5.52 to 6.00, the pIC50 [1] was 6.00 to 7.00 and the pIC50 (K562 cells) was at least 6.00. It also gave a pIC50 (A549 cells) of 5.52 to 6.00.

`O=C(/C=C/c1ccc2c(c1)OC1(CCNCC1)CC2=O)NO` [Example 8, (E)-3-{4-oxo-spiro[chromane-2,4′-piperidine]-7-yl}-N-hydroxy-acrylamide] showed a pIC50 (HCT-116 cells) of at most 5.52, a pIC50 [1] of under 6.00 and a pIC50 (K562 cells) of at most 5.52. The pIC50 (A549 cells) was at most 5.52.

`O=C(/C=C/c1ccc2c(c1)OC1(CCN(Cc3ccccc3)CC1)CC2=O)NO` [Example 9, (E)-3-{1′-Benzyl-4-oxo-spiro[chromane-2,4′-piperidine]-7-yl}-N-hydroxy-acrylamide] showed a pIC50 (HCT-116 cells) of at most 5.52, a pIC50 [1] of under 6.00 and a pIC50 (K562 cells) of at most 5.52. It also gave a pIC50 (A549 cells) of at most 5.52.

For `CC(=O)N1CCC2(CC1)CC(=O)c1ccc(/C=C/C(=O)NO)cc1O2` [Example 10, (E)-3-{1′-Acetyl-4-oxo-spiro[chromane-2,4′-piperidine]-7-yl}-N-hydroxy-acrylamide], the pIC50 (HCT-116 cells) was at most 5.52, the pIC50 [1] was under 6.00 and the pIC50 (K562 cells) was at most 5.52. It also gave a pIC50 (A549 cells) of at most 5.52.

In the case of `O=C(/C=C/c1ccc2c(c1)OC1(CCN(C(=O)c3ccccc3)CC1)CC2=O)NO` [Example 11, (E)-3-{1′-Benzoyl-4-oxo-spiro[chromane-2,4′-piperidine]-7-yl}-N-hydroxy-acrylamide], the pIC50 (HCT-116 cells) was at most 5.52, the pIC50 [1] was 6.00 to 7.00 and the pIC50 (K562 cells) was at most 5.52. It also gave a pIC50 (A549 cells) of at most 5.52.

Compound `CCOC(=O)N1CCC2(CC1)CC(=O)c1ccc(/C=C/C(=O)NO)cc1O2` [Example 12, (E)-3-{1′-Ethyloxycarbonyl-4-oxo-spiro[chromane-2,4′-piperidine]-7-yl}-N-hydroxy-acrylamide] has a pIC50 (HCT-116 cells) of at most 5.52, a pIC50 [1] of 6.00 to 7.00 and a pIC50 (K562 cells) of 5.52 to 6.00. The pIC50 (A549 cells) was 5.52 to 6.00.

For `O=C(/C=C/c1ccc2c(c1)CCC1(CCN(Cc3ccccc3)CC1)O2)NO` [Example 13, (E)-3-{1′-Benzyl-spiro[chromane-2,4′-piperidine]-6-yl}-N-hydroxy-acrylamide], the pIC50 (HCT-116 cells) was at most 5.52, the pIC50 [1] was under 6.00 and the pIC50 (K562 cells) was at most 5.52. For the same compound, the pIC50 (A549 cells) was at most 5.52.

For `O=C(/C=C/c1ccc2c(c1)C(O)CC1(CCN(Cc3ccccc3)CC1)O2)NO` (stereo not drawn) [Example 14, (E)-3-{1′-Benzyl-4-hydroxy-spiro[chromane-2,4′-piperidine]-6-yl}-N-hydroxy-acrylamide], the pIC50 (HCT-116 cells) was 5.52 to 6.00, the pIC50 [1] was under 6.00 and the pIC50 (K562 cells) was 5.52 to 6.00. For the same compound, the pIC50 (A549 cells) was at most 5.52.

`O=C(/C=C/c1ccc2c(c1)C=CC1(CCN(Cc3ccccc3)CC1)O2)NO` [Example 15, (E)-3-{1′-Benzyl-spiro[chromene-2,4′-piperidine]-6-yl}-N-hydroxy-acrylamide] gave a pIC50 (HCT-116 cells) of at most 5.52, a pIC50 [1] of under 6.00 and a pIC50 (K562 cells) of at most 5.52. It also gave a pIC50 (A549 cells) of at most 5.52.

For `CC(=O)NC1CC2(CCN(Cc3ccccc3)CC2)Oc2ccc(/C=C/C(=O)NO)cc21` (stereo not drawn) [Example 16, (E)-3-{1′-Benzyl-4-acetylamino-spiro[chromane-2,4′-piperidine]-6-yl}-N-hydroxy-acrylamide], the pIC50 (HCT-116 cells) was at most 5.52, the pIC50 [1] was under 6.00 and the pIC50 (K562 cells) was at most 5.52. For the same compound, the pIC50 (A549 cells) was at most 5.52.

In the case of `O=C(/C=C/c1ccc2c(c1)/C(=N/O)CC1(CCN(Cc3ccccc3)CC1)O2)NO` [Example 19, (E)-3-{1′-Benzyl-4-hydroxyimino-spiro[chromane-2,4′-piperidine]-6-yl}-N-hydroxy-acrylamide], the pIC50 (HCT-116 cells) was at least 6.00, the pIC50 [1] was over 7.00 and the pIC50 (K562 cells) was 5.52 to 6.00. For the same compound, the pIC50 (A549 cells) was 5.52 to 6.00.

`O=C(/C=C/c1ccc2c(c1)C(=O)C1(CCNCC1)O2)NO` [Example 20, (E)-3-{3-oxo-spiro[benzofuran-2(3H), 4′-piperidin]-5-yl}-N-hydroxy-acrylamide] was tested, and the pIC50 (HCT-116 cells) was at least 6.00, the pIC50 [1] was 6.00 to 7.00 and the pIC50 (K562 cells) was 5.52 to 6.00. The pIC50 (A549 cells) was 5.52 to 6.00.

`O=C(/C=C/c1ccc2c(c1)C(=O)C1(CCN(Cc3ccccc3)CC1)O2)NO` [Example 21, (E)-3-{1′-Benzyl-3-oxo-spiro[benzofuran-2(3H), 4′-piperidin]-5-yl}-N-hydroxy-acrylamide] gave a pIC50 (HCT-116 cells) of at most 5.52, a pIC50 [1] of 6.00 to 7.00 and a pIC50 (K562 cells) of at most 5.52. It also gave a pIC50 (A549 cells) of at most 5.52.

In the case of `Cc1ccc(CCN2CCC3(CC2)CC(=O)c2cc(/C=C/C(=O)NO)ccc2O3)cc1` [Example 61, (E)-3-{1′-[2-(4-Methyl-phenyl)-ethyl]-4-oxo-spiro[chromane-2,4′-piperidine]-6-yl}-N-hydroxy-acrylamide], the pIC50 [1] was over 7.00.

`O=C(/C=C/c1ccc2c(c1)C(=O)CC1(CCN(Cc3ccc4ccccc4n3)CC1)O2)NO` [Example 65, (E)-3-{1′-(Quinolin-2-ylmethyl)-4-oxo-spiro[chromane-2,4′-piperidine]-6-yl}-N-hydroxy-acrylamide] showed a pIC50 [1] of over 7.00.

With `O=C(/C=C/c1ccc2c(c1)C(=O)CC1(CCN(Cc3cnc4ccccc4c3)CC1)O2)NO` [Example 66, (E)-3-{1′-(Quinolin-3-ylmethyl)-4-oxo-spiro[chromane-2,4′-piperidine]-6-yl}-N-hydroxy-acrylamide] the pIC50 [1] was 6.00 to 7.00.

Work on `O=C(/C=C/c1ccc2c(c1)C(=O)CC1(CCN(Cc3ccccc3-c3ccccc3)CC1)O2)NO` [Example 67, (E)-3-{1′-(Biphenyl-2yl-methyl)-4-oxo-spiro[chromane-2,4′-piperidine]-6-yl}-N-hydroxy-acrylamide] yielded a pIC50 [1] of 6.00 to 7.00.

In the case of `O=C(/C=C/c1ccc2c(c1)C(=O)CC1(CCN(C3CCCC3)CC1)O2)NO` [Example 70, (E)-3-{1′-Cyclopentyl-4-oxo-spiro[chromane-2,4′-piperidine]-6-yl}-N-hydroxy-acrylamide], the pIC50 [1] was 6.00 to 7.00.

For `O=C(/C=C/c1ccc2c(c1)C(=O)N(Cc1ccccc1)C1(CCNCC1)O2)NO` [Example 82, (E)-3-{3,4-Dihydro-3-benzyl-4-oxo-spiro[2H-(1,3)-benzoxazine-2,4′-piperidin]-6-yl}-N-hydroxy-acrylamide], the pIC50 [1] was over 7.00.
